Results from the supplement of paper PMC11208160.

Test: recombinant UMI read abundance after kanamycin selection (control-corrected) (log10(CPM+1)); higher = more efficient recombination; extreme values may be limits of the assay; sequences stand for … in AGTGCAGAGAAAATCGGCCAGTTTTCTCTGCCTGCAGTCCGCATGCCGTGGGACCCCTTGGGTTCTAACCTGTTGCCTAGATTTATGCAGCGGACTGCCTTTCTCCCAAAGTGATAAACCGG…AGGTTGGTTTCACT; site = the 11-nt donor
How it was run: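 Pooled Escherichia coli screen of donor and donor-binding-loop pairs for the IS621 bridge recombinase. Each pair sits with a 12-nt UMI on a plasmid carrying a promoterless kanamycin gene. The library was co-electroporated with a target plasmid encoding a fixed target and T7-inducible recombinase, then plated with IPTG (0.07 mM) plus kanamycin, or unselected, each in two replicates. Recombinant UMIs were PCR-amplified across the donor–target junction and sequenced. Counts became CPM, averaged over replicates, scaled by control-derived factors and reported as log10(CPM+1).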

Row | Sequence | recombinant UMI read abundance (log10)
1 | GTAGTCGCATGGACCGGTTTTCCCGGTAATCCGTATTTGCG (site GTCGTCGCTCG) | 0.00603
2 | GTAGTCGCATGGACCGGTTTTCCCGGTAATCCGTATTTGCG (site GTGGTCGCTCG) | 0.0189
3 | GTAGTCGCATGGACCGGTTTTCCCGGTAATCCGTATTTGCG (site GTTGTCGCTCG) | 0.285
4 | GTAGTCGCATGGACCGGTTTTCCCGGTAATCCGTATTTGCG (site TTAGTCGCTCG) | 1.26
5 | GTAGTGACATGGACCGGTTTTCCCGGTAATCCGTATTTGCC (site GTAGTGACTGG) | 2.58
6 | GTATAGGCATGGACCGGTTTTCCCGGTAATCCGTATTTGTA (site GTATAGGCTTA) | 2.22
7 | GTATCTCCATGGACCGGTTTTCCCGGTAATCCGTATTTGAA (site GTATCTCCTTT) | 1.19
8 | GTATGAACATGGACCGGTTTTCCCGGTAATCCGTATTTGAG (site GTATGAACTCT) | 1.87
9 | GTATGCACATGGACCGGTTTTCCCGGTAATCCGTATTTGGA (site GTATGCACTTA) | 0.901
10 | GTATGCACATGGACCGGTTTTCCCGGTAATCCGTATTTGGA (site GTATGCACTTC) | 0.931
11 | GTATGCACATGGACCGGTTTTCCCGGTAATCCGTATTTGGA (site GTATGCACTTG) | 0.783
12 | GTATGCACATGGACCGGTTTTCCCGGTAATCCGTATTTGGA (site GTATGCACTTT) | 0.924
13 | GTATGGCCATGGACCGGTTTTCCCGGTAATCCGTATTTGCA (site GAATGGCCTTG) | 0
14 | GTATGGCCATGGACCGGTTTTCCCGGTAATCCGTATTTGCA (site GCATGGCCTTG) | 0
15 | GTATGGCCATGGACCGGTTTTCCCGGTAATCCGTATTTGCA (site GGATGGCCTTG) | 0
16 | GTATGGCCATGGACCGGTTTTCCCGGTAATCCGTATTTGCA (site GTATGGCCTTG) | 0
17 | GTATGTTCATGGACCGGTTTTCCCGGTAATCCGTATTTGAG (site GTATGTTCTCT) | 2.52
18 | GTATTACCATGGACCGGTTTTCCCGGTAATCCGTATTTGCA (site GTATTACCTTG) | 0
19 | GTATTATCATGGACCGGTTTTCCCGGTAATCCGTATTTGAC (site CTAGTATCTGT) | 1.38
20 | GTATTATCATGGACCGGTTTTCCCGGTAATCCGTATTTGAC (site GTATTATCTGT) | 2.66
21 | GTCAAACCATGGACCGGTTTTCCCGGTAATCCGTATTTGGT (site GACAAACCTAC) | 0
22 | GTCAAACCATGGACCGGTTTTCCCGGTAATCCGTATTTGGT (site GCCAAACCTAC) | 0
23 | GTCAAACCATGGACCGGTTTTCCCGGTAATCCGTATTTGGT (site GGCAAACCTAC) | 0
24 | GTCAAACCATGGACCGGTTTTCCCGGTAATCCGTATTTGGT (site GTCAAACCTAC) | 0
25 | GTCACACCATGGACCGGTTTTCCCGGTAATCCGTATTTGTT (site GTCACACCTAA) | 0.00382

Row | Sequence | recombinant UMI read abundance (log10)
26 | GTCACGACATGGACCGGTTTTCCCGGTAATCCGTATTTGGT (site GTCACGACTAC) | 1.06
27 | GTCACTGCATGGACCGGTTTTCCCGGTAATCCGTATTTGAT (site GTCACTGCTAT) | 1.99
28 | GTCAGAACATGGACCGGTTTTCCCGGTAATCCGTATTTGGC (site GTAAGAACTGC) | 0.371
29 | GTCAGAACATGGACCGGTTTTCCCGGTAATCCGTATTTGGC (site GTCAGAACTGC) | 1.57
30 | GTCAGAACATGGACCGGTTTTCCCGGTAATCCGTATTTGGC (site GTGAGAACTGC) | 0
31 | GTCAGAACATGGACCGGTTTTCCCGGTAATCCGTATTTGGC (site GTTAGAACTGC) | 0
32 | GTCAGCCCATGGACCGGTTTTCCCGGTAATCCGTATTTGAC (site GTCAGCCCTGT) | 1.33
33 | GTCAGCGCATGGACCGGTTTTCCCGGTAATCCGTATTTGGC (site GTCAGCGCTGC) | 2.6
34 | GTCATAGCATGGACCGGTTTTCCCGGTAATCCGTATTTGTT (site GTCATAGCTAA) | 2.1
35 | GTCATCGCATGGACCGGTTTTCCCGGTAATCCGTATTTGCC (site GTCATCGCTGG) | 2.35
36 | GTCCCCGCATGGACCGGTTTTCCCGGTAATCCGTATTTGTA (site GTCCCCGCTTA) | 1.13
37 | GTCCCTACATGGACCGGTTTTCCCGGTAATCCGTATTTGAG (site ATCCCTACTCT) | 0.0134
38 | GTCCCTACATGGACCGGTTTTCCCGGTAATCCGTATTTGAG (site CTCCCTACTCT) | 0.0129
39 | GTCCCTACATGGACCGGTTTTCCCGGTAATCCGTATTTGAG (site GTCCCTACTCT) | 0.168
40 | GTCCCTACATGGACCGGTTTTCCCGGTAATCCGTATTTGAG (site TTCCCTACTCT) | 0.00698
41 | GTCGCCACATGGACCGGTTTTCCCGGTAATCCGTATTTGGA (site GTCGCCACTTC) | 0.751
42 | GTCGGCACATGGACCGGTTTTCCCGGTAATCCGTATTTGAC (site GTCGGCACTGT) | 2.04
43 | GTCGGTACATGGACCGGTTTTCCCGGTAATCCGTATTTGAC (site GTAGGTACTGT) | 0.298
44 | GTCGGTACATGGACCGGTTTTCCCGGTAATCCGTATTTGAC (site GTCGGTACTGT) | 1.32
45 | GTCGGTACATGGACCGGTTTTCCCGGTAATCCGTATTTGAC (site GTGGGTACTGT) | 0
46 | GTCGGTACATGGACCGGTTTTCCCGGTAATCCGTATTTGAC (site GTTGGTACTGT) | 0
47 | GTCGTCGCATGGACCGGTTTTCCCGGTAATCCGTATTTGCG (site GTAGTCGCTCG) | 0.0332
48 | GTCGTCGCATGGACCGGTTTTCCCGGTAATCCGTATTTGCG (site GTCGTCGCTCG) | 0.512
49 | GTCGTCGCATGGACCGGTTTTCCCGGTAATCCGTATTTGCG (site GTGGTCGCTCG) | 0.00908
50 | GTCGTCGCATGGACCGGTTTTCCCGGTAATCCGTATTTGCG (site GTTGTCGCTCG) | 0.0186

Row | Sequence | recombinant UMI read abundance (log10)
51 | GTCGTTACATGGACCGGTTTTCCCGGTAATCCGTATTTGGC (site GTCGTTACTGC) | 1.78
52 | GTCTAAACATGGACCGGTTTTCCCGGTAATCCGTATTTGTG (site GTCTAAACTCA) | 1.09
53 | GTCTATACATGGACCGGTTTTCCCGGTAATCCGTATTTGGA (site GTCTATACTTC) | 1.08
54 | GTCTGATCATGGACCGGTTTTCCCGGTAATCCGTATTTGAA (site GTCTGATCTTT) | 1.66
55 | GTGAAAACATGGACCGGTTTTCCCGGTAATCCGTATTTGCT (site GAGAAAACTAG) | 0.918
56 | GTGAAAACATGGACCGGTTTTCCCGGTAATCCGTATTTGCT (site GCGAAAACTAG) | 0
57 | GTGAAAACATGGACCGGTTTTCCCGGTAATCCGTATTTGCT (site GGGAAAACTAG) | 0
58 | GTGAAAACATGGACCGGTTTTCCCGGTAATCCGTATTTGCT (site GTGAAAACTAG) | 1.46
59 | GTGAAACCATGGACCGGTTTTCCCGGTAATCCGTATTTGAT (site GTGAAACCTAT) | 0
60 | GTGAGAACATGGACCGGTTTTCCCGGTAATCCGTATTTGCT (site GTGAGAACTAG) | 2.25
61 | GTGAGGGCATGGACCGGTTTTCCCGGTAATCCGTATTTGAA (site GTGAGGGCTTT) | 1.83
62 | GTGATGGCATGGACCGGTTTTCCCGGTAATCCGTATTTGAT (site GTGATGGCTAT) | 2.31
63 | GTGATTCCATGGACCGGTTTTCCCGGTAATCCGTATTTGAC (site GTGATTCCTGT) | 1.95
64 | GTGCAAGCATGGACCGGTTTTCCCGGTAATCCGTATTTGGT (site GTGCAAGCTAC) | 1.28
65 | GTGCAAGCATGGACCGGTTTTCCCGGTAATCCGTATTTGGT (site GTGCACGCTAC) | 0.00225
66 | GTGCAAGCATGGACCGGTTTTCCCGGTAATCCGTATTTGGT (site GTGCAGGCTAC) | 0.602
67 | GTGCAAGCATGGACCGGTTTTCCCGGTAATCCGTATTTGGT (site GTGCATGCTAC) | 0.222
68 | GTGCAGGCATGGACCGGTTTTCCCGGTAATCCGTATTTGTC (site GTGCAGGCTGA) | 2.44
69 | GTGCATCCATGGACCGGTTTTCCCGGTAATCCGTATTTGCC (site GTGCATCCTGG) | 0.749
70 | GTGCATCCATGGACCGGTTTTCCCGGTAATCCGTATTTGGT (site GTGCATACTAC) | 0.0234
71 | GTGCATCCATGGACCGGTTTTCCCGGTAATCCGTATTTGGT (site GTGCATCCTAC) | 0.56
72 | GTGCATCCATGGACCGGTTTTCCCGGTAATCCGTATTTGGT (site GTGCATGCTAC) | 0
73 | GTGCATCCATGGACCGGTTTTCCCGGTAATCCGTATTTGGT (site GTGCATTCTAC) | 0.438
74 | GTGCATGCATGGACCGGTTTTCCCGGTAATCCGTATTTGAT (site GTGCATGCTAA) | 0.00938
75 | GTGCATGCATGGACCGGTTTTCCCGGTAATCCGTATTTGAT (site GTGCATGCTAC) | 0.265
